This note sets out measurements from patent publication US4483872A, “Non-classical topical treatment for glaucoma using n-substituted sulfonamides” (University of Iowa Research Foundation, priority 1983, dated 1984).

Experiment [1] concerns eye of normal adult white rabbits. The experiment in a line: IOP after topical drops of 1% solution, Examples 6 and 7. Further details: unit: mm Hg. The class given is in vivo, rabbit. The following applies: 3 drops. As to the method: A 1% solution of 1-(N-hydroxy-N-methylsulfamido)-4-chlorobenzene and a 1% solution of 1-(N-hydroxy-N-methyl-sulfamido)-4-nitrobenzene were prepared for two separate experiments, examples 6 and 7 resepctively. The vehicle consisted of aqueous pH 7.2 phosphate buffer. One drop, followed by two drops each at one minute intervals, was applied to one eye of normal adult white rabbits. Six rabbits were used in example 6 and twelve rabbits in example 7. The treated eye was selected randomly, whereas, the fellow eye received placebo. The observer was masked. The intraocular pressure (IOP) was measured with a Digilab pneumotonometer, initially and every ten minutes for 180 minutes in each experiment following instillation of the anti-glaucoma agent. A drop of local anesthetic was applied to each eye just prior to making the measurement.

Experiment [2] addresses carbonic anhydrase. Description: in vitro carbonic anhydrase activity, simplified method of Maren. The class given is biochemical. Here is the method: The procedure required the use of a specialized glass reaction vessel to which was added 0.4 ml phenol red indicator (0.00125%), 0.25 to 0.30 ml heparinized blood containing 2 enzyme units of carbonic anhydrase, 0.1 ml drug solution (0.01 to 100 mg/L) and 0.1 ml of 0.255 M carbonate buffer. […] Water was added to the reaction vessel which was kept in a water bath at 0±0.25° C. The reaction cell was constantly purged with CO2 at a rate of 200 to 250 ml/min. Each reagent was added at a specified time and in a specified order. […] The time required for the reaction begins with the addition of carbonate buffer and was completed with the indicator changed from red to yellow. […] Reaction time was the time for the uncatalyzed reaction time. The reaction times remain constant once equilibration has been attained. By varying the time before adding the carbonate buffer and then determining the reaction time, the equilibration time can be accurately determined. The reaction time was averaged over three determinations. A range of drug concentrations were reacted and the concentration of drug causing 50% inhibition of enzyme (I50) read from a plot of reaction time against drug concentration. (If two enzyme units are added, then the concentration of drug yielding a reaction time corresponding to the activity of one unit is taken as the I50). An enzyme unit (e.u.) was calculated from: [formula]

Experiment [3] concerns eye of normal adult white rabbits. Description: Salted rabbit test: intraocular pressure (IOP) after topical drops. The experiment is classed as in vivo. As to the method:
In particular, an initial drop from the test formulation followed by two drops at one minute intervals are applid to one eye of each of six adult white rabbits that had been maintained on a diet containing 0.5% sodium. The treated eye was selected randomly, whereas, the fellow eye received placebo; the observer was masked. Results identified a small but significant reduction of intraocular pressure in the treated eye at 30, 60 and 120 minutes.
One drop, followed by two drops each at one minute intervals, was applied to one eye of normal adult white rabbits. Six rabbits were used in the experiment. The treated eye was selected randomly, whereas, the fellow eye received placebo. The observer was masked. The intraocular pressure (IOP) was measured with a Digilab Pneumotonometer, initially and every ten minutes for 120 minutes following instillation of the anti-glaucoma agent. A drop of local anesthetic was applied just prior to making the measurement.
IOP* Changes = (IOPDET - IOPCET) - (IOPDEO - IOPCEO)
IOPDET = measurement (mm Hg) of dosed eye at time t.
IOPDEO = measurement (mm Hg) of dosed eye at t = 0, but prior to
IOPDET = IOP measurement (mm Hg) of control (nondosed) eye at time t
IOPCEO = IOP measurement (mm Hg) of control eye at time t = 0
*Difference in IOP measurements (mm Hg) between both eyes just prior to
dosing at t = 0 (i.e., IOPDEO - IOPCEO).

Molecules are shown by their SMILES.

For `CN(O)S(=O)(=O)c1ccc(Cl)cc1` [1-(N-hydroxy-N-methylsulfamido)-4-chlorobenzene], the “IOP changes, Ave. change” value in experiment [1] (Example 6, 0 min) is 0.417; in experiment [1] (Example 6, 20 min) it was 0.617; in experiment [1] (Example 6, 40 min) it was 1.00; in experiment [1] (Example 6, 60 min, probability less than 0.025) it was -1.25; in experiment [1] (Example 6, 80 min), 0.167; in experiment [1] (Example 6, 100 min), 0.667. The “IOP changes, Ave. change” value in experiment [1] (Example 6, 120 min) is reported as 0.333; in experiment [1] (Example 6, 140 min) it was “-.333”; in experiment [1] (Example 6, 160 min), -0.25; in experiment [1] (Example 6, 180 min), -0.25.

On to `CNS(=O)(=O)c1nnc(NC(C)=O)s1` [methyl acetazolamide, N-methyl-2-acetylamino-1,3,4-thiadiazole-5-sulfonamide], for which the “averaged I50 (concentration of drug causing 50% inhibition of enzyme)” value in experiment [2] (2 enzyme units of carbonic anhydrase in heparinized blood, 0° C., averaged over three determinations) was determined as 0.520 mg. In addition, in experiment [2] (in vitro), the “in vitro activity” value is “inactive in vitro”. Moreover, in experiment [2] (ratio 0.52/0.00914), the “activity relative to acetazolamide (ratio of I50 values)” value was 1/60. For the same molecule, the “IOP difference between both eyes, Av. Chg.” value in experiment [3] (0 min, just prior to dosing (baseline, IOPDEO - IOPCEO), six rabbits) was 1.83 mm Hg. Besides, the “lowering of IOP, statistical significance” value in experiment [3] (1% w/v suspension, 3 drops, all time intervals to 120 min) is “statistically significant at all time intervals”. In addition, the “reduction of intraocular pressure” value in experiment [3] (after topical administration) was “able to reduce intraocular pressure”.

As to `CN(O)S(=O)(=O)c1ccc([N+](=O)[O-])cc1` [1-(N-hydroxy-N-methyl-sulfamido)-4-nitrobenzene], the “IOP changes, Ave. change” value is given as 0.167 in experiment [1] (Example 7, 0 min); 0.333 in experiment [1] (Example 7, 10 min); -0.333 in experiment [1] (Example 7, 20 min); “-.667” in experiment [1] (Example 7, 30 min); -1.67 in experiment [1] (Example 7, 40 min, probability less than 0.05); -1.83 in experiment [1] (Example 7, 50 min, probability less than 0.025). The “IOP changes, Ave. change” value in experiment [1] (Example 7, 60 min, probability less than 0.025 (footnote)) was 1.67; in experiment [1] (Example 7, 70 min, probability less than 0.025), -2.0; in experiment [1] (Example 7, 80 min, probability less than 0.05) it was -1.167; in experiment [1] (Example 7, 90 min) it was 0.2; in experiment [1] (Example 7, 100 min), -0.5; in experiment [1] (Example 7, 110 min), -0.33. For the same molecule, in experiment [1] (Example 7, 120 min), the “IOP changes, Ave. change” value is reported as -1.00.
